Laboratory results as given in patent publication US4472376A, “Pharmaceutical insertion compositions and a process for producing the same” (Toko Yakuhin Kogyo Kabushiki Kaisha, priority 1976, dated 1984).

How the values were obtained:
[1] = Concentration of 5-fluorouracil in the serum after insertion into the rectum of a rabbit; format: in vivo; conditions: insertion composition of Example 16, rabbit; 3 hours after the insertion
Method: When the pharmaceutical insertion composition of the present invention is inserted into the rectum, its concentration in the serum is as follows:
A pharmaceutical insertion composition obtained in Example 16 is inserted into the rectum of a rabbit having the body weight of 3.2 kg at the rate of 20 mg of 5-fluoroaracil per 1 kg of the body weight, and the concentration of 5-fluorouracil in the serum after the insertion is measured to show the following results: […]

[2] = 5-fluorouracil blood concentration / absorption by other dosage forms, compared with effective concentration in blood; format: in vivo
From the text: Thus, it has been clearly known that the dosage in the form of the insertion composition of the present invention is quite excellent.

[3] = known value; cited from earlier work

- absorption from conventional suppository or liquid form ([2]; conventional suppository or liquid): barely absorbed
Compound: O=c1[nH]cc(F)c(=O)[nH]1 [5-fluorouracil]
- maintenance of effective concentration in blood after rectal insertion of the gel composition [1]: maintains sufficient effective concentration in blood
- concentration in blood after injection into vein ([2]; injected into vein, 30 minutes later): less than the effective blood concentration
- effective concentration in blood [3]: about 0.08 μg/ml
